Assay results from patent publication US8362000B2, “Azetidinyl diamides as monoacylglycerol lipase inhibitors” (Janssen Pharmaceutica NV, priority 2009, dated 2013).
Numbering of substitutions follows the chain as printed. Where two headings read alike, the source gives them in different places.

Columns and labels:
[1] = target: T1, mutant MGL (Homo sapiens, UniProt Q99685, L169S/L176S); test: MGL ThermoFluor assay - mutant; assay type: binding
T1 sequence (Q99685 1-303 L169S/L176S): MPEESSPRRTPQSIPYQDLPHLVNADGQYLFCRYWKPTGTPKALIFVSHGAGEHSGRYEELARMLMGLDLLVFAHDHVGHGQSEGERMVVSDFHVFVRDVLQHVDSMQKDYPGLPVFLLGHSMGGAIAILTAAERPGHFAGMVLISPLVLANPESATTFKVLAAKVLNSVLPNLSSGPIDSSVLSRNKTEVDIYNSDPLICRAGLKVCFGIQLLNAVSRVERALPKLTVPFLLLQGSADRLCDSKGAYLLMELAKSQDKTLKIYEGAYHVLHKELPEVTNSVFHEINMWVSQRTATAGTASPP

[2] = target: T2, purified wild type MGL (wt-MGLL 6H-11-313) (Homo sapiens, UniProt Q99685)
T2 sequence (Q99685 1-303): T1 sequence (Q99685 1-303 L169S/L176S) with S169L, S176L

[3] = ThermoFluor thermal stability binding assay, read-out: MGL mutant ThermoFluor Kd
[4] = ThermoFluor concentration-response, read-out: MGL mutant ThermoFluor Kd
[5] = ThermoFluor, compound concentration measured by qNMR, read-out: MGL mutant ThermoFluor qKd (using qNMR conc.)
[6] = ThermoFluor, compound concentration measured by qNMR, read-out: MGL mutant ThermoFluor qKd (μM) (using qNMR conc.)
[7] = compound concentration measured by qNMR, read-out: MGL mutant ThermoFluor qKd (using qNMR conc.)

In the case of `O=C(c1nccs1)N1CCN(C2CN(C(=O)c3cccc4oc(-c5ccc(Cl)cc5)nc34)C2)CC1` [Cpd 1220], the Kd [1, 3] is reported as 0.015 µM and the IC50 [2] is reported as 255 nM.

`O=C(c1cc2ccc(C(F)(F)F)nc2[nH]1)N1CC(N2CCN(C(=O)c3nccs3)CC2)C1` [Cpd 799] gave a Kd [1, 4] of 0.661 µM and an IC50 [2] of 1670 nM.

`O=C(c1ccc2c(ccn2-c2cccnc2)c1)N1CC(N2CCN(C(=O)c3nccs3)CC2)C1` [Cpd 1192, 1-Pyridin-3-yl-5-({3-[4-(1,3-thiazol-2-ylcarbonyl)piperazin-1-yl]azetidin-1-yl}carbonyl)-1H-indole] showed a Kd [1, 5] of 0.035 µM and an IC50 [2] of 109 nM.

`Cc1cc2nc(C(=O)N3CC(N4CCN(C(=O)c5ccc[nH]5)CC4)C3)cn2cc1Br` [Cpd 1451] gave a Kd [1, 6] greater than 16.2 µM and an IC50 [2] greater than 16700 nM.

`O=C(c1ccc2nn(-c3cccc(C(F)(F)F)c3)cc2c1)N1CC(N2CCN(C(=O)c3nccs3)CC2)C1` [Cpd 1420] showed a Kd [1, 6] of 0.08 µM and an IC50 [2] of 5 nM.

Work on `O=C(c1nccs1)N1CCN(C2CN(C(=O)c3cccc4oc(-c5ccccc5F)nc34)C2)CC1` [Cpd 1193] yielded a Kd [1, 3] of 0.017 µM and an IC50 [2] of 116 nM.

`O=C(c1ccc2nc(C(F)(F)F)sc2c1)N1CC(N2CCN(C(=O)c3nccs3)CC2)C1` [Cpd 718] showed a Kd [1, 3] of 0.072 µM and an IC50 [2] of 148 nM.

For `O=C(c1ccc2c(ccn2-c2ccccn2)c1)N1CC(N2CCN(C(=O)c3ccc[nH]3)CC2)C1` [Cpd 1189, 1-Pyridin-2-yl-5-({3-[4-(1H-pyrrol-2-ylcarbonyl)piperazin-1-yl]azetidin-1-yl}carbonyl)-1H-indole], the Kd [1, 5] was 0.153 µM and the IC50 [2] was 97 nM.

For `O=C(c1cscn1)N1CCN(C2CN(C(=O)c3cccc(-c4ccccc4)c3F)C2)CC1` [Cpd 1240], the Kd [1, 4] was 2.49 µM and the IC50 [2] was 459 nM.

Work on `O=C(c1nc2cc(-c3cccnc3F)ccc2[nH]1)N1CC(N2CCN(C(=O)c3nccs3)CC2)C1` [Cpd 1476] yielded a Kd [1, 6] of 7.21 µM and an IC50 [2] greater than 16700 nM.

Work on `Cc1nc2cc(C(=O)N3CC(N4CCN(C(=O)c5nccs5)CC4)C3)ccc2n1-c1ccccc1` [Cpd 1229] yielded a Kd [1, 7] of 0.011 µM and an IC50 [2] of 306 nM.

Compound `O=C(c1ccc(Oc2ncc(C(F)(F)F)cc2Cl)cc1)N1CC(N2CCN(C(=O)c3cscn3)CC2)C1` [Cpd 720] has a Kd [1, 4] of 0.347 µM and an IC50 [2] of 173 nM.

`O=C(c1ccc(-c2cccc(C(F)(F)F)c2)cc1)N1CC(N2CCN(C(=O)c3cnco3)CC2)C1` [Cpd 1169] gave a Kd [1, 6] of 0.053 µM and an IC50 [2] of 55 nM.

Compound `O=C(c1ccc2c(ccn2-c2ccc(C(F)(F)F)cn2)c1)N1CC(N2CCN(C(=O)c3nccs3)CC2)C1` [Cpd 1314, 5-({3-[4-(1,3-Thiazol-2-ylcarbonyl)piperazin-1-yl]azetidin-1-yl}carbonyl)-1-[5-(trifluoromethyl)pyridin-2-yl]-1H-indole] has a Kd [1, 5] of 0.001 µM and an IC50 [2] of less than 5 nM.

`Cc1c(Cc2ccc(C(F)(F)F)cc2)cccc1C(=O)N1CC(N2CCN(C(=O)c3nccs3)CC2)C1` [Cpd 1008] was tested, and the Kd [1, 4] was 0.089 µM and the IC50 [2] was less than 5 nM.

`O=C(c1ccc2[nH]c(-c3ccccc3)nc2c1)N1CCN(C2CN(C(=O)c3nccs3)C2)CC1` [Cpd 1271] was tested, and the Kd [1, 4] was 1 µM and the IC50 [2] was 1570 nM.

`CC(C)(C)c1cc(C(=O)N2CC(N3CCN(C(=O)c4nccs4)CC3)C2)cc(C(C)(C)C)c1` [Cpd 776] showed a Kd [1, 4] of 0.257 µM and an IC50 [2] of 902 nM.

`Cc1ccnc(-n2ccc3cc(C(=O)N4CC(N5CCN(C(=O)c6nccs6)CC5)C4)ccc32)c1` [Cpd 1128, 1-(4-Methylpyridin-2-yl)-5-({3-[4-(1,3-thiazol-2-ylcarbonyl)piperazin-1-yl]azetidin-1-yl}carbonyl)-1H-indole] showed a Kd [1, 5] of 0.018 µM and an IC50 [2] of 21 nM.

`O=C(c1ccccc1)N1CCN(C2CN(C(=O)c3ccc4c(cnn4-c4ccc(F)c(F)c4)c3)C2)CC1` [Cpd 590] gave a Kd [1, 6] of 0.182 µM and an IC50 [2] of 186 nM.

`O=C(c1ccc2c(ccn2-c2cc(F)ccc2F)c1)N1CC(N2CCN(C(=O)c3nccs3)CC2)C1` [Cpd 1373] gave a Kd [1, 6] of 0.004 µM and an IC50 [2] of less than 5 nM.

In the case of `O=C(c1ccc2nc(C(F)(F)F)cc(Cl)c2c1)N1CC(N2CCN(C(=O)c3cscn3)CC2)C1` [Cpd 848], the Kd [1, 4] is reported as 0.833 µM and the IC50 [2] is reported as 6900 nM.

In the case of `O=C(c1ccc(-c2ccccc2)cc1)N1CC(N2CCN(C(=O)C3CC3(F)F)CC2)C1` (stereo not shown) [Cpd 1256], the Kd [1, 3] is reported as 0.393 µM and the IC50 [2] is reported as 808 nM.

Compound `O=C(c1ccc[nH]1)N1CCN(C2CN(C(=O)c3[nH]c4nc(C(F)(F)F)ccc4c3Br)C2)CC1` [Cpd 739] has a Kd [1, 5] of 0.265 µM and an IC50 [2] of 290 nM.

`O=C(c1ccc(-c2ccc(C(F)(F)F)s2)cc1)N1CC(N2CCN(C(=O)c3cncs3)CC2)C1` [Cpd 1268] was tested, and the Kd [1, 7] was 0.039 µM and the IC50 [2] was 1220 nM.

In the case of `O=C(c1ccccc1)N1CCN(C2CN(C(=O)c3ccc4c(cnn4-c4cccc(OC(F)(F)F)c4)c3)C2)CC1` [Cpd 576, 5-({3-[4-(Phenylcarbonyl)piperazin-1-yl]azetidin-1-yl}carbonyl)-1-[3-(trifluoromethoxy)phenyl]-1H-indazole], the Kd [1, 6] is reported as 0.088 µM and the IC50 [2] is reported as 51 nM.

`Cc1c(Cc2ccc(C(F)(F)F)cc2)cccc1C(=O)N1CC(N2CCN(C(=O)c3ccc[nH]3)CC2)C1` [Cpd 1013] gave a Kd [1, 4] of 0.76 µM and an IC50 [2] of 161 nM.

`O=C(c1cscn1)N1CCN(C2CN(C(=O)c3sc4cc(C(F)(F)F)ccc4c3Cl)C2)C(C(F)(F)F)C1` (stereo not shown) [Cpd 801] was tested, and the Kd [1, 3] was 52.5 µM and the IC50 [2] was 1710 nM.

With `Cn1c2ccccc2c2cc(C(=O)N3CC(N4CCN(C(=O)c5nccs5)CC4)C3)ccc21` [Cpd 750] the Kd [1, 4] was 0.025 µM and the IC50 [2] was 395 nM.

For `O=C(CN1C(=O)c2ccccc2S1(=O)=O)N1CC(N2CCN(C(=O)c3nccs3)CC2)C1` [Cpd 1432], the Kd [1, 6] was greater than 28.4 µM and the IC50 [2] was greater than 16700 nM.

`O=C(c1cnc2ccc(Cl)cc2c1)N1CC(N2CCN(C(=O)c3nccs3)CC2)C1` [Cpd 797] gave a Kd [1, 5] of 0.489 µM and an IC50 [2] of 1600 nM.

Compound `O=C(c1ccccc1)N1CCN(C2CN(C(=O)c3sc4cc(Cl)ccc4c3C(F)(F)F)C2)CC1` [Cpd 512] has a Kd [1, 4] of 0.05 µM and an IC50 [2] of 260 nM.

Work on `O=C(c1cscn1)N1CCN(C2CN(C(=O)c3cc4ccc(C(F)(F)F)cc4[nH]3)C2)CC1` [Cpd 828] yielded a Kd [1, 4] of 2.63 µM and an IC50 [2] of 3730 nM.

With `O=C(c1ccc(-c2ccccc2)cc1)N1CC(N2CCN(C(=O)c3nccs3)CC2C(F)(F)F)C1` (stereo not shown) [Cpd 1306, 1-[1-(Biphenyl-4-ylcarbonyl)azetidin-3-yl]-4-(1,3-thiazol-2-ylcarbonyl)-2-(trifluoromethyl)piperazine] the Kd [1, 6] was 12.2 µM and the IC50 [2] was 8150 nM.

`Cc1nc2cc(Cl)cc(Cl)c2cc1C(=O)N1CC(N2CCN(C(=O)c3nccs3)CC2)C1` [Cpd 823] showed a Kd [1, 5] of 1.25 µM and an IC50 [2] of 2970 nM.

Work on `O=C(c1ccccc1)N1CCN(C2CN(C(=O)c3ccc(Oc4cccnc4)cc3)C2)CC1` [Cpd 527] yielded a Kd [1, 4] of 10 µM and an IC50 [2] of 8570 nM.

`O=C(c1ccc2[nH]c3c(c2c1)CCCC3)N1CC(N2CCN(C(=O)c3nccs3)CC2)C1` [Cpd 763] was tested, and the Kd [1, 4] was 0.083 µM and the IC50 [2] was 635 nM.

`Cc1nc2cc(C(=O)N3CCN(C4CN(C(=O)c5ccccc5)C4)CC3)ccc2n1C1CCCCC1` [Cpd 523] was tested, and the Kd [1, 4] was 0.686 µM and the IC50 [2] was 3130 nM.

For `O=C(c1ccccc1)N1CCN(C2CN(C(=O)c3ccc4nc(-c5cccc(F)c5)sc4c3)C2)CC1` [Cpd 599], the Kd [1, 3] was 0.481 µM and the IC50 [2] was 1030 nM.

In the case of `N#Cc1ccc(N2CCC(C(=O)N3CC(N4CCN(C(=O)c5cscn5)CC4)C3)CC2)cc1` [Cpd 647], the Kd [1, 3] is reported as greater than 31.2 µM and the IC50 [2] is reported as 12700 nM.

Work on `CC(C)(C)OC(=O)N1CCc2cccc(C(=O)N3CC(N4CCN(C(=O)c5cscn5)CC4)C3)c2C1` [Cpd 861] yielded a Kd [1, 3] of 2.63 µM and an IC50 [2] of 9220 nM.

`O=C(c1cscn1)N1CC(N2CCN(C(=O)c3cc4cc(Br)cnc4o3)CC2)C1` [Cpd 1449] showed a Kd [1, 3] of 3.19 µM and an IC50 [2] greater than 16700 nM.

In the case of `Cc1cc(-c2cccc(C(F)(F)F)c2)ccc1C(=O)N1CCN(C2CN(C(=O)c3nccs3)C2)CC1` [Cpd 1260], the Kd [1, 4] is reported as 0.221 µM and the IC50 [2] is reported as 862 nM.

With `O=C(c1ccccc1)N1CCN(C2CN(C(=O)c3cc(-c4cccc(F)c4)c4[nH]ccc4c3)C2)CC1` [Cpd 600] the Kd [1, 6] was 1.97 µM and the IC50 [2] was 1150 nM.

`O=C(c1ccc2[nH]c(-c3ccccc3)nc2c1)N1CC(N2CCN(C(=O)c3nccs3)CC2)C1` [Cpd 1194] showed a Kd [1, 4] of 0.1 µM and an IC50 [2] of 118 nM.

With `O=C(c1ccc2c(c1)ncn2-c1ccccc1)N1CC(N2CCN(C(=O)c3nccs3)CC2)C1` [Cpd 1207] the Kd [1, 4] was 0.014 µM and the IC50 [2] was 179 nM.

`O=C(c1ccccc1)N1CCN(C2CN(C(=O)c3ccc(CS(=O)(=O)c4cccc(C(F)(F)F)c4)cc3)C2)CC1` [Cpd 564] was tested, and the Kd [1, 4] was 10 µM and the IC50 [2] was 5400 nM.

`O=C(c1cccc(CNc2ccccc2F)c1)N1CC(N2CCN(C(=O)c3nccs3)CC2)C1` [Cpd 1005] was tested, and the Kd [1, 4] was 0.083 µM and the IC50 [2] was 237 nM.

`O=C(c1cn[nH]c1)N1CCN(C2CN(C(=O)c3ccc(-c4ccccc4)cc3)C2)CC1` [Cpd 1310] gave a Kd [1, 3] of 8.35 µM and an IC50 [2] of 11600 nM.

With `Cc1nc2cc(C(=O)N3CC(N4CCN(C(=O)c5cscn5)CC4)C3)ccc2n1-c1ccc(F)c(F)c1` [Cpd 1264] the Kd [1, 7] was 0.251 µM and the IC50 [2] was 986 nM.

`O=C(c1ccc2c(c1)[nH]c(=O)n2-c1ccc(F)c(F)c1)N1CC(N2CCN(C(=O)c3cscn3)CC2)C1` [Cpd 941] gave a Kd [1, 4] of 0.389 µM and an IC50 [2] of 1370 nM.
